# According to patent publication US20120070377A1, “COMPOUNDS AND BIOLOGICAL MATERIALS AND USES THEREOF” (priority 2009, published 2012):
# Entries after “also recorded” stand apart in the source; their conditions may differ. Where two headings read alike, the source gives them in different places.
# Tests used:
# [1] = Solubility in water or buffer (observations); type: physicochemical
# [2] = Photophysical parameters of the photosensitisers; type: physicochemical; settings: for φΔ, singlet oxygen quantum yield: determined vs. PPa in toluene (0.5), 10% error; for φf, fluorescence quantum yield: determined vs. PPa in toluene (φf = 0.3), 5% error
# KB = assay: In vitro phototoxicity (MTS cell titre assay after 670 nm laser light), Example 5; type: cell-based, human; settings: free photosensitisers, 2 hrs incubation, 670 nm laser 0.5 W 10 s, MTS after 48 h
# Procedure: (§1) Two different human-derived tumour cell lines: SKOV3 and KB were obtained from the European Collection of Cell Cultures (ECACC) and cultured in Dulbecco's modified Eagle's medium (DMEM) with 10% foetal bovine serum, penicillin and streptomycin antibiotics (1%) and passaged when 70-90% confluent in 75 cm^2 flasks. The cells were maintained at 37° C. in a humidified 5% CO2 atmosphere.
# (§2) Cells were trypsinised and seeded at 2×10^3 cells/well for KB and 3×10^3 cells/well for SKOV3 into 96-well plates and incubated over two nights for KB and overnight for SKOV3 at 37° C. and 5% CO2. The cells were then washed once in phenol red free DMEM and appropriately diluted photosensitiser solution or photo-immunoconjugate (in DMEM, 2% DMSO) was added to the appropriate wells under subdued lighting. DMEM or Triton X-100 (1%) were added to control wells. After 2 hrs incubation in the dark at 37° C., 5% CO2, cells were washed three times with PBS and 100 μl of DMEM was added to each well.
# (§3) Wells were exposed to light from a High Powered-Devices 670 nm laser used at 0.5 W for 10 s. Controls included wells with photosensitiser added and no exposure to light, or DMEM added and exposure to light as well as Triton X-100 (1%) with or without light exposure. Cells that had no photosensitiser added and no exposure to light were included as overall controls. Cells were incubated in the dark at 37° C., 5% CO2 for 48 h after which time, a cell titre assay was performed according to the manufacturer's instructions. The Promega Cell Titre-96 system was used which involves the conversion by live cells of a tetrazolium compound (MTS) into a formazan dye which is measurable by its absorbance at 490 nm.
# SKOV3 = assay: as above; type: cell-based, human; settings: free photosensitisers, 2 hrs incubation, 670 nm laser 0.5 W 10 s, MTS after 48 h
# Procedure: as §1, §2, §3
# [3] = Biodistribution and blood clearance of 125I-radiolabelled photosensitisers and PICs in SKOV3 tumour mice; type: in vivo, BALB/c nude mice; settings: for blood clearance: iv, radiolabelled, 1-24 hr, SKOV3 tumour mice
# Procedure: 0.1 mg of photosensitiser was dissolved in 0.5 ml PBS. Radiolabelled Iodine (Na^125I, ICN chemicals) was added to 0.1 ml of PBS in Iodogen-coated tubes (Pierce chemicals) and allowed to activate. The activated iodine-125 was transferred to the photosensitiser and allowed to react for 5-10 minutes at room temperature. The radiolabelled photosensitiser was separated from free iodine on a mini silica gel column eluting with 100% PBS to remove the iodinating agent followed by a gradual switch from 10% MeOH/PBS to 100% MeOH with the radiolabelled photosenstiser eluting with 10% MeOH/chloroform. The radiolabelled solutions of the photosensitiser was allowed to air-dry and re-suspended in PBS containing 2% DMSO.
# (§4) Female BALB/c nude mice (aged 6-8 weeks old) were implanted with 10^7 SKOV3 tumour cells mixed in 0.1 ml of ice-cold matrigel subcutaneously and the tumours were allowed to grow for 3-6 weeks as xenografts. Mice were maintained in IVC cages (individually-vented cages) in a clean room. Samples were injected in a volume of 0.1 ml, intravenously via the lateral tail vein and the mice were maintained in low light with full food and water (irradiated). At various time points (1-24 hr), mice were culled by cardiac puncture under terminal anesthesia and blood and tissues collected. All the tissues were counted for radioactivity by gamma counting and weighed.
# The results are shown as a percentage of radioactive material injected per gram of tissue.
# (§5) The PS (PPa and PPa-PEG) were chemically coupled to C6 scFv, radiolabelled with iodogen as before, but dialysed against 3×5 L of PBS to remove the free iodine and injected into BALB/c nude mice with SKOV3 tumours as above. Tissues were dissected and counted as above.
# SKOV3 tumour = assay: Tumour uptake and tumour:blood ratio of radiolabelled photosensitisers and PICs; type: in vivo, BALB/c nude mice; settings: % of the injected dose/g of tumour tissue
# Procedure: as §4, §5
# The tumours were counted for radioactivity and expressed as % of the injected dose/g of tumour tissue (FIG. 10).
# The percentage PS in the tumour was divided by the percentage in the blood (gram for gram) to give a targeting or tumour:blood ratio (the higher the better). This plotted in FIG. 11. A high tumour:blood ratio means that there is more in the tumour compared to the blood (and other tissues). This is a function of tumour uptake and blood clearance (see FIGS. 9 and 10).
# SKOV3 cells = assay: Confocal fluorescence microscopy, intracellular localisation with organelle co-stains; type: cell-based, human; settings: for golgi localisation (co-localisation with Bodipy ceramide): FIG. 20; for mitochondrial localisation (co-localisation with Mito-tracker): FIG. 21; for lysosomal localisation (co-localisation with Lyso-tracker): FIG. 22
# Procedure: Imaging took place at the FILM Imperial College London on a LEICA SP5 MP inverted confocal microscope, at 37° C. and under a CO2 supplemented atmosphere. The water objective (63×) was used in all the experiments. Images were processed using the Leica software, Image J and Powerpoint.
# Note: in any experiment where a photosensitiser is used on cells, the experiment is done under subdued lighting exposing the cells to as little light as possible and incubating wrapped in foil. Following addition of PS to cells, cells were no longer observed on the microscope.
# Cells were plated on a Labt-Tek® 8 Chambered #1.0 Borosilicate Coverglass System. With some cell lines, it is often useful to use an attachment factor (200 μl, 30 mins, 37° C.) to coat the wells first.
# Photosensitiser solutions in phenol red free DMEM (10% FBS, 1% P/S, 0.5% DMSO) were prepared fresh and pre-warmed to 37° C. for 15 mins. The cells were washed with media (1×200 μl) before adding the solutions (200 μl per chamber). Unless otherwise stated, the cells were grown over 20 hrs in a humidified atmosphere (37° C., 5% CO2). The cells were washed (2×200 μl) with prewarmed phenol red free DMEM
# Lysotracker® Green DND-26 was diluted according to manufacturers indications (1 mM stock) and further diluted to twice the working concentration in DMEM (10% FBS, 1% P/S). For use for single colour staining, this was diluted with DMEM (10% FBS, 1% P/S) to a final concentration of 1 μM. When it was used for two colour staining with photosensitisers, a 2 μM solution was twice diluted in photosensitiser solution to give a 1 μM final concentration.
# The cells were incubated for 15 mins at 4° C. and a further 30 mins at 37° C. before replacing with fresh medium and imaging.
# MitoTracker® Green was diluted according to manufacturers indications (1 mM stock) and further diluted to twice the working concentration in DMEM (10% FBS, 1% P/S). For use for single colour staining, this was diluted with DMEM (10% FBS, 1% P/S) to a final concentration of 1 μM. When it was used for two colour staining with photosensitisers, a 2 μM solution was twice diluted in photosensitiser solution to give a 1 μM final concentration.
# The cells were incubated for 15 mins at 4° C. and a further 1 hr at 37° C. before replacing with fresh medium and imaging.
# ER-Tracker™ Green (BODIPY® FL glibenclamide) was diluted according to manufacturer's indications (1 mM stock) and further diluted to twice the working concentration in HBSS buffer (+2% HEPES). For use for single colour staining, this was diluted with HBSS (+2% HEPES) to a final concentration of 3 μM. When it was used for two colour staining with photosensitisers, a 6 μM solution was twice diluted in photosensitiser solution to give a 3 μM final concentration.
# The cells were incubated for 15 mins at 4° C. and a further 1 hr at 37° C. before replacing with fresh buffer and imaging.
# Bodipy® FL C5-ceramide complexed to BSA was diluted according to manufacturer's indications (0.5 mM stock) and further diluted to twice the working concentration in HBSS buffer (+2 HEPES). For use for single colour staining, this was diluted with HBSS (+2% HEPES) to a final concentration of 5 μM. When it was used for two colour staining with photosensitisers, a 10 μM solution was twice diluted in photosensitiser solution to give a 5 μM final concentration. The cells were incubated for 15 mins at 4° C. and a further 30 mins at 37° C. before washing with cold HBSS/HEPES (3×100 μl) and replacing with either HBSS/HEPES or photosensitiser solution and incubating at 37° C. for a further 30 mins before replacing with fresh buffer and imaging.
# [4] = reference value of PPa in toluene; cited from earlier work
# [5] = Skin photosensitivity in a murine model; type: in vivo; settings: laser on the skin after 1 hour, monitored over 4 days, scale of 1-4
# Procedure: FIG. 24: Skin photosensitivity of Foscan compared to compound II. Photosensitisers were administered at t=0 hrs and a laser shone on the skin after 1 hour. The skin reaction was followed over time and the results were plotted according to the scale shown.
# Skin photosensitivity is an important issue to be resolved in PDT. […] In a murine model, Foscan was administered at clinical doses (ref 109) and compared to compound 11 and a photo-immunoconjugate of compound 11. Skin photosensitivity was monitored over 4 days by observation according to a scale of 1-4 (FIG. 24).
# [6] = background statement; cited from earlier work
compound,measurement,setting,value
"Meso pyropheophorbide a-3,4,5-(triethylene glycol monmethylether) 3-devinyl-3-carboxybenzyl-3,4,5-(triethylene glycol monomethylether) pyropheophorbide a [compound 38]",solubility in water,[1],highly aqueous soluble
"Pyropheophorbide-a [PPa, reference compound]","τΔ, singlet oxygen lifetime",[2],30 μs
same,IC50,KB,1.2 ± 0.4 µM
same,IC50,SKOV3,14.5 ± 3.2 µM
same,level in tissues (biodistribution),"[3]; % of radioactive material injected per gram of tissue, over 24 hour",high levels in all major tissues
same,blood clearance,[3],resides in the blood for a long time; also recorded: very slow
same,tumour uptake,SKOV3 tumour,high
same,golgi localisation (co-localisation with Bodipy ceramide),SKOV3 cells,significant yellow staining
same,mitochondrial localisation (co-localisation with Mito-tracker),SKOV3 cells,significant yellow staining
same,lysosomal localisation (co-localisation with Lyso-tracker),SKOV3 cells,insignificant yellow staining
same,"φf, fluorescence quantum yield",[4],0.3
same,"φΔ, singlet oxygen quantum yield",[4],0.5
"Manganese(III)-5-ethynyl hexynoic acid pyropheophorbide a-3,4,5-(triethylnene glycol monomethyl ether) benzyl ester [compound 57]",solubility in water,[1],water soluble
"CCC1=C(C)c2cc3[nH]c(c(C)c3CC)c(-c3cc[n+](CCOCCOCCOC)cc3)c3nc(c4c5[nH]c(cc1n2)c(C)c5C(=O)C4)[C@@H](CCC(=O)O)[C@@H]3C [compound 31C, 3-devinyl-20-(4-triethyleneoxidepyridinium) pyropheophorbide-a chloride]","τΔ, singlet oxygen lifetime",[2],30 μs
same,"φΔ, singlet oxygen quantum yield",[2],0.73
same,"φf, fluorescence quantum yield",[2],0.15
same,IC50,"KB; Homo sapiens, KB",24.7 ± 11.7 µM
same,IC50,"SKOV3; Homo sapiens, SK-OV-3",260 ± 31 µM
same,blood clearance,[3],clears more rapidly than the PPa-PEG
same,golgi localisation (co-localisation with Bodipy ceramide),SKOV3 cells,very little yellow staining
same,mitochondrial localisation (co-localisation with Mito-tracker),SKOV3 cells,very little yellow staining
same,lysosomal localisation (co-localisation with Lyso-tracker),SKOV3 cells,significant yellow staining
same,ER localisation (co-localisation with ER-tracker),SKOV3 cells; FIG. 23,no yellow staining
same,intracellular localisation (intrinsic fluorescence),"SKOV3 cells; no co-stain, FIG. 19",more punctuate staining pattern indicative of endosomal (aqueous compartment) localisation
"CCC1=C(C)c2cc3[nH]c(c(C)c3CC)c(C#CCCCC(=O)O)c3nc(c4c5[nH]c(cc1n2)c(C)c5C(=O)C4)[C@@H](CCC(=O)OCc1cc(OCCOCCOCCOC)c(OCCOCCOCCOC)c(OCCOCCOCCOC)c1)[C@@H]3C [compound 10, Meso 5-Ethynylhexanoic acid pyropheophorbide a-3,4,5-(triethylene glycolmonomethylether) benzyl ester]","τΔ, singlet oxygen lifetime",[2],30 μs
same,"φΔ, singlet oxygen quantum yield",[2],0.56
same,"φf, fluorescence quantum yield",[2],0.26
N-Bis-[3-(trimethylamino)propyl]-meso 5-Bromopyropheophorbide a amide diiodide [compound 19],solubility in water,[1],readily soluble in water and methanol
"Oc1cccc(-c2c3nc(c(-c4cccc(O)c4)c4ccc([nH]4)c(-c4cccc(O)c4)c4nc(c(-c5cccc(O)c5)c5ccc2[nH]5)CC4)C=C3)c1 [Foscan, reference compound]",skin photosensitivity,[5],significant skin sensitivity
same,skin photosensitivity (duration),[6],about 2 weeks
